# Reference: patent US12144811B2, “Combination of a 4-pyrimidinesulfamide derivative with an SGLT-2 inhibitor for the treatment of endothelin related diseases” (IDORSIA PHARMACEUTICALS LTD, priority 2017, dated 2024)
# Legend:
# [1] = Hygroscopicity by gravimetric vapor sorption (GVS); assay type: physicochemical
# From the text: Mass increase of a sample as obtained according to Example 1 in the first cycle from 40% r.h. to 80% r.h. corresponds to 0.4%. At 95% r.h. 2.2% moisture were taken up in a reversible way without hysteresis upon drying.
# [2] = Storage of Form A crystals at room temperature (XRPD and HPLC control); assay type: physicochemical; conditions: 20-25° C., 92% relative humidity
# Protocol: All XRPD patterns for the solid forms described herein have been obtained as described hereafter. X-ray powder diffraction patterns were collected on a Bruker D8 Advance X-ray diffractometer equipped with a Lynxeye detector operated with CuKα-radiation in reflection mode (coupled two Theta/Theta). Typically, the X-ray tube was run at of 40 kV/40 mA. A step size of 0.02° (2θ) and a step time of 76.8 sec over a scanning range of 3-50° in 2θ were applied. The divergence slit was set to fixed 0.3. Powders were slightly pressed into a silicon single crystal sample holder with depth of 0.5 mm and samples were rotated in their own plane during the measurement. Diffraction data are reported using combined Cu Kα1 and Kα2 radiation, without Kα2 stripping. The accuracy of the 2θ values as provided herein is in the range of +/−0.1-0.2° as it is generally the case for conventionally recorded X-ray powder diffraction patterns. A sample of Form A crystals of the COMPOUND (as obtained according to Example 1 above) has been stored at a temperature of 20-25° C. at 92% relative humidity for 2 months. […] The same result was obtained after storage for 8 weeks under the above conditions.
# [3] = tested on: conscious, male hypertensive deoxycorticosterone acetate salt rats; assay: Acute effects of Exforge HCT alone or with ACT-132577 or spironolactone in DOCA-salt rats; assay type: in vivo, rat; conditions: for Blood pressure when added on top of Exforge HCT: aprocitentan 10 mg/kg or spironolactone 300 mg/kg, single oral doses
# From the text: Res. (1975), 36, 300-309). In the DOCA-salt rats, hypertension is induced by the combination of unilateral nephrectomy, implantation of pellets of the mineralocorticoid analog DOCA, and provision of 1% sodium chloride in drinking water. 7-9 DOCA-salt rats per treatment group are used for this test. The results obtained regarding MAP are summarised in FIGS. 17 and 18 wherein each data point is presented as a 6-hour mean.
# [4] = tested on: conscious, male hypertensive deoxycorticosterone acetate salt rats; assay: Acute effects on MAP and HR by telemetry in DOCA-salt rats; assay type: in vivo, rat
# From the text: The acute effects of ACT-132577 on blood pressure, in particular on mean arterial blood pressure (hereafter “MAP”), and heart rate (hereafter “HR”) can be evaluated by means of telemetry in conscious, male hypertensive deoxycorticosterone acetate salt rats (hereafter “DOCA-salt rats”—see details about this model in Gavras et al., Circ. Res. (1975), 36, 300-309). In the DOCA-salt rats, hypertension is induced by the combination of unilateral nephrectomy, implantation of pellets of the mineralocorticoid analog DOCA, and provision of 1% sodium chloride in drinking water. Groups of 6-11 DOCA-salt rats are used for the vehicle (7.5% gelatin aqeuous solution) and each dose of ACT-132577 tested (0.3, 1, 3, 10, 30, 100, and 300 mg/kg). Effects of ACT-132577 on HR and MAP are calculated for individual animals relative to the 24 h period before administering. The results obtained regarding MAP (maximal MAP decrease observed over 6 consecutive hours) are summarised in FIG. 4 (data are presented as mean±standard error of the mean). […] In contrast to MAP, HR was not affected.
# [5] = tested on: conscious, male spontaneaously hypertensive rats; assay: Acute effects on MAP and HR by telemetry in SHRs; assay type: in vivo, rat
# Protocol: The acute effects of ACT-132577 on blood pressure, in particular on mean arterial blood pressure (hereafter “MAP”), and heart rate (hereafter “HR”) can be evaluated by means of telemetry in conscious, male spontaneaously hypertensive rats (hereafter “SHRs”—see details about this model in Atanur et al., Genome Res. (2010), 20, 791-803). Groups of 4-6 SHRs are used for the vehicle (7.5% gelatin aqeuous solution) and each dose of ACT-132577 tested (1, 3, 10, 30, 100, and 300 mg/kg). Effects of ACT-132577 on HR and MAP are calculated for individual animals relative to the 24 h period before administering. The results obtained regarding MAP (maximal MAP decrease observed over 6 consecutive hours) are summarised in FIG. 5 (data are presented as mean±standard error of the mean). […] In contrast to MAP, HR was not affected.
# [6] = tested on: conscious, male spontaneaously hypertensive rats; assay: Acute effects of Exforge HCT alone or with ACT-132577 or spironolactone in SHRs; assay type: in vivo, rat; conditions: for Blood pressure when added on top of Exforge HCT: aprocitentan 100 mg/kg or spironolactone 300 mg/kg oral
# Protocol: The acute effects of Exforge HCT® (i.e. a fixed dose combination of valsartan/amlodipine/hydrochlorothiazide; dosage adapted for 1.6 mg/kg/0.1 mg/kg/0.25 mg/kg for valsartan/amlodipine/hydrochlorothiazide, respectively) on blood pressure, in particular on mean arterial blood pressure (hereafter “MAP”), and heart rate (hereafter “HR”) in combination with ACT-132577 or spironolactone can be evaluated by means of telemetry in conscious, male spontaneaously hypertensive rats (hereafter “SHRs”—see details about this model in Atanur et al., Genome Res. (2010), 20, 791-803).
# 9 SHRs per treatment group are used for this test. To match the maximal effect on blood pressure of co-administereds drug in this model, aprocitentan 100 mg/kg is administrated orally on the 3rd day following 3-day oral administration of Exforge HCT® mg/kg and spironolactone 300 mg/kg is co-administered orally with Exforge HCT® on the 1st day followed by 2 days of Exforge HCT® administration. The results obtained regarding MAP are summarised in FIGS. 15 and 16 wherein each data point is presented as a 6-hour mean.
# [7] = in comparison to corresponding alkylated derivatives; cited from earlier work
# [8] = tested on: Spontaneously hypertensive rats (SHR); assay: Blood pressure by telemetry in SHR, SGLT-2 inhibitor alone or in combination with ACT-132577; assay type: in vivo, rat; conditions: for Maximal effect on MAP of SGLT2 inhibitor alone: 30 mg/kg/day by gavage
# From the text: Spontaneously hypertensive rats (SHR) are instrumented micro-surgically with a telemetry pressure transmitter implanted in the peritoneal cavity (Data Science International, Minnesota, USA) under isoflurane-induced narcosis. In brief, the pressure catheter is inserted into the aorta, below the renal artery pointing upstream. The abdomen is closed and the transmitter sutured to the abdominal musculature. Blood pressure is collected continuously using the Dataquest ART Platinum acquisition system (version 4.36). Drugs (ACT-132577 or SGLT2 inhibitors) or vehicle are administered by gavage (n=4-7 per group) alone or in combination. Systolic, mean and diastolic arterial pressures, and heart rate are collected at 5-minute intervals until the blood pressure curve comes back to baseline.
# Because it takes several days for the SGLT2 inhibitors to exert an effect on blood pressure, rats are treated first for 12 days with either vehicle (5 ml/kg/day), or canagliflozin (30 mg/kg/day) or empagliflozin (30 mg/kg/day), then ACT-132577 (30 mg/kg/day) is co-administered for 3 additional days.
# [9] = tested on: conscious, male hypertensive Dahl salt-sensitive rats; assay: Acute effects on MAP and HR by telemetry in Dahl salt-sensitive rats; assay type: in vivo, rat; conditions: Dahl-S rats
# From the text: The acute effects of ACT-132577 on blood pressure, in particular on mean arterial blood pressure (hereafter “MAP”), and heart rate (hereafter “HR”) can be evaluated by means of telemetry in conscious, male hypertensive Dahl salt-sensitive rats (hereafter “Dahl-S rats”—see details about this model in Rapp, Hypertension (1982), 4, 753-763). Elevated blood pressure is induced in Dahl-S rats by providing 1% sodium chloride in drinking water. Groups of 6-7 Dahl-S rats are used for the vehicle (7.5% gelatin aqeuous solution) and each dose of ACT-132577 tested (0.3, 1, 3, 10, 30, 100, and 300 mg/kg). Effects of ACT-132577 on HR and MAP are calculated for individual animals relative to the 24 h period before administering. The results obtained regarding MAP (maximal MAP decrease observed over 6 consecutive hours) are summarised in FIG. 3 (data are presented as mean±standard error of the mean). […] In contrast to MAP, HR was not affected.
# [10] = tested on: conscious, male hypertensive deoxycorticosterone acetate salt rats; assay: Chronic effects of ACT-132577 in DOCA-salt rats; assay type: in vivo, rat
# From the text: Res. (1975), 36, 300-309). In the DOCA-salt rats, hypertension is induced by the combination of unilateral nephrectomy, implantation of pellets of the mineralocorticoid analog DOCA, and provision of 1% sodium chloride in drinking water. The results of the DOCA-salt rats treated with ACT-132577 can be compared to those obtained for Wistar rats or for DOCA-salt rats that received only the vehicle (4% gelatin aqueous solution).
# [11] = tested on: male Wistar rats; assay: Effect on fluid retention: haematocrit in Wistar rats; assay type: in vivo, rat; conditions: single oral dose 1-30 mg/kg, 24 hours after administration
# Protocol: A decrease in haematocrit (Hct) or haemoglobin occurs secondary to an increase in plasma volume and can be used as a marker of fluid retention. A single oral dose of ACT 132577 (1-30 mg/kg) or vehicle (gelatin) is administered by gavage to male Wistar rats. Twenty-four hours after administration, sublingual blood was sampled under isoflurane-induced anesthesia. Haematocrit is measured using a hematology analyser.
# [12] = tested on: patients with type 2 diabetes; conditions: overt diabetic nephropathy; cited from earlier work
# [13] = tested on: patients with rHT; conditions: 14 week phase 3 trial, versus 12% in each of the other groups; cited from earlier work
# [14] = chronic oral administration, DOCA-salt rats
# [15] = oral, 1, 10 and 100 mg/kg/day for 4 weeks
compound,measurement,setting,value
"NS(=O)(=O)Nc1ncnc(OCCOc2ncc(Br)cn2)c1-c1ccc(Br)cc1 [Form A, {5-(4-bromo-phenyl)-6-[2-(5-bromo-pyrimidin-2-yloxy)-ethoxy]-pyrimidin-4-yl}-sulfamide]",Moisture taken up,"[1]; at 95% r.h., reversible, without hysteresis upon drying",2.2%
same,Mass increase,[1]; first cycle from 40% r.h. to 80% r.h.,0.4%
same,Hygroscopicity (GVS),[1]; sample as obtained according to Example 1,slightly hygroscopic
same,X-ray powder diffraction of the sample after storage,[2]; 2 months,still consisting only in Form A crystals
same,"HPLC control after storage (change in peak area %, degradation)",[2]; 8 weeks,no significant degradation
"NS(=O)(=O)Nc1ncnc(OCCOc2ncc(Br)cn2)c1-c1ccc(Br)cc1 [ACT-132577, {5-(4-bromo-phenyl)-6-[2-(5-bromo-pyrimidin-2-yloxy)-ethoxy]-pyrimidin-4-yl}-sulfamide]",Blood pressure when added on top of Exforge HCT,[3],further reduced blood pressure
same,"Blood pressure reduction compared with spironolactone, on top of Exforge HCT",[3]; aprocitentan 10 mg/kg vs spironolactone 300 mg/kg,greater blood pressure reduction than spironolactone
same,Heart rate (HR),[4],not affected
same,MAP decrease (maximal MAP decrease observed over 6 consecutive hours),"[4]; 10 mg/kg, mean±SEM",29±6 mm Hg
same,Heart rate (HR),[5],not affected
same,MAP decrease (maximal MAP decrease observed over 6 consecutive hours),"[5]; 100 mg/kg, mean±SEM",18±4 mm Hg
same,Blood pressure when added on top of Exforge HCT,[6],further reduced blood pressure
same,"Blood pressure reduction compared with spironolactone, on top of Exforge HCT",[6]; aprocitentan 100 mg/kg vs spironolactone 300 mg/kg,greater blood pressure reduction than spironolactone
same,Clearance in vivo,[7],much shorter
same,Half-life in vivo,[7],much longer
same,Further decrease of blood pressure (MAP) on top of canagliflozin,[8]; ACT-132577 30 mg/kg/day for 3 days after 12 days canagliflozin 30 mg/kg/day,−14±1 mmHg
same,Further decrease of blood pressure (MAP) on top of empagliflozin,[8]; ACT-132577 30 mg/kg/day for 3 days after 12 days empagliflozin 30 mg/kg/day,−18±3 mmHg
same,"Decrease in blood pressure (MAP) on top of vehicle, without canagliflozin",[8]; ACT-132577 30 mg/kg/day on top of vehicle (canagliflozin comparison),−16±2 mmHg
same,"Decrease in blood pressure (MAP) on top of vehicle, without empagliflozin",[8]; ACT-132577 30 mg/kg/day on top of vehicle (empagliflozin comparison),−14±2 mmHg
same,Heart rate (HR),[9],not affected
same,MAP decrease (maximal MAP decrease observed over 6 consecutive hours),"[9]; 10 mg/kg, mean±SEM",19±4 mm Hg
same,Left ventricular hypertrophy,[10]; [14],tended to decrease
same,Plasma concentrations of N-terminal pro-brain natriuretic peptide (NTproBNP),[10]; [14],dose-dependent decrease
same,Renal blood flow,[10]; [14],dose-dependently increased
same,Renal vascular resistance,[10]; [14],decreased
same,DOCA-salt-induced increase in MAP,[10]; [15],dose-dependently attenuated
same,Heart rate (HR),[10]; [15],without changing HR
same,"Haematocrit (Hct), marker of fluid retention",[11],did not impact
"COc1ccccc1Oc1c(NS(=O)(=O)c2ccc(C)cn2)nc(-c2ccncc2)nc1OC [Avosentan, avosentan]",Albumin-to-creatinine ratio (ACR),[12],significantly reduced
COc1cc(OC)nc(O[C@H](C(=O)O)C(OC)(c2ccccc2)c2ccccc2)n1 [darusentan],Fluid retention/edema (most frequent adverse event),[13],28%
canagliflozin [reference compound],Maximal effect on MAP of SGLT2 inhibitor alone,[8],−9±1 mmHg
"OC[C@H]1O[C@@H](c2ccc(Cl)c(Cc3ccc(O[C@H]4CCOC4)cc3)c2)[C@H](O)[C@@H](O)[C@@H]1O [empagliflozin, reference compound]",Maximal effect on MAP of SGLT2 inhibitor alone,[8],−13±3 mmHg
"CC(=O)S[C@@H]1CC2=CC(=O)CC[C@]2(C)[C@H]2CC[C@@]3(C)[C@@H](CC[C@@]34CCC(=O)O4)[C@H]12 [spironolactone, reference compound]",Blood pressure when added on top of Exforge HCT,[3],further reduced blood pressure
same,Blood pressure when added on top of Exforge HCT,[6],further reduced blood pressure
